Measured values as given in article PMC7179312 (Antimicrobial Agents and Chemotherapy, 2020).

Key:
[1] = system: P. aeruginosa PAM1154 carrying pUCP24 vector (PAM4175); assay: Checkerboard potentiation of antibiotic activity by BLIs; type: cell-based, Pseudomonas aeruginosa
[2] = system: P. aeruginosa PAM1154 carrying KPC-2::D179Y (PAM4639); assay: as above; type: cell-based, Pseudomonas aeruginosa; conditions: for Beta-lactam MIC in the presence of BLI: PAM4639 KPC-2 D179Y
[3] = system: P. aeruginosa PAM1154 carrying wild-type KPC-2 (PAM4135); assay: as above; type: cell-based, Pseudomonas aeruginosa; conditions: PAM4135 KPC-2
KPC-2 L169P = target: T1, KPC-2 L169P (Klebsiella pneumoniae, UniProt Q9F663, L168P); assay: Steady-state Ki with nitrocefin as substrate (method of Waley); type: biochemical; conditions: NCF substrate, 10 min preincubation, 37°C
T1 construct: 6xHis (C); made in house; host or cells: E. coli (pET28a construct; BL21(DE3) pLys is named only for wild type and D179Y)

KPC-2 D179Y = target: T2, KPC-2 D179Y (Klebsiella pneumoniae, UniProt Q9F663, D178Y); assay: IC50 of inhibition of ceftazidime hydrolysis; type: biochemical
T2 construct: 6xHis (C); made in house; host or cells: E. coli BL21(DE3) pLys, pET28a
Protocol: (§1) Enzymes were mixed with BLIs at concentrations varying from 160 to 0.0027 μM in buffer A and incubated for 10 min, and 100 μM (for wild-type KPC-2) or 10 μM (for the D179Y mutant) CFTZ was subsequently added. Substrate cleavage profiles were recorded at 260 nm every 10 s for 10 min. Initial rates of reaction were calculated and exported to Prism software to calculate IC50s using the “dose-response – inhibition, variable slope (four parameters)” equation.

KPC-2 [4] = target: T3, KPC-2 (Klebsiella pneumoniae, UniProt Q9F663); assay: IC50 of inhibition of ceftazidime hydrolysis; type: biochemical
T3 construct: 6xHis (C); made in house; host or cells: E. coli BL21(DE3) pLys, pET28a
Protocol: as §1

KPC-2 [5] = target: T3, KPC-2; conditions: NCF hydrolysis; cited from earlier work

Q: With CO/N=C(\C(=O)N[C@@H]1C(=O)N2C(C(=O)[O-])=C(C[N+]3(C)CCCC3)CS[C@H]12)c1csc(N)n1 [Cefepime, cefepime] as the compound, how does the “Antibiotic MIC with avibactam at 4 μg/ml” value ([1]; avibactam 4 μg/ml) read?
A: 0.125 µg/mL

Q: And the “Antibiotic MIC, No BLI” value ([1]; no BLI)?
A: 0.125 µg/mL

Q: And the “Antibiotic MIC with vaborbactam at 8 μg/ml” value ([1]; vaborbactam 8 μg/ml)?
A: 0.125 µg/mL

Q: What about the “Antibiotic MIC with avibactam at 4 μg/ml” value ([2]; PAM4639 KPC-2::D179Y, avibactam 4 μg/ml) of the same compound?
A: 2 µg/mL

Q: What about the “Antibiotic MIC, No BLI” value ([2]; PAM4639 KPC-2::D179Y, no BLI) of the same compound?
A: 32 µg/mL

Q: And the “Antibiotic MIC with vaborbactam at 8 μg/ml” value ([2]; PAM4639 KPC-2::D179Y, vaborbactam 8 μg/ml)?
A: 0.25 µg/mL

Q: What about the “Beta-lactam MIC in the presence of BLI” value ([2]; avibactam 0 µg/ml) of the same compound?
A: 32 µg/mL

Q: And the “Beta-lactam MIC in the presence of BLI” value ([2]; avibactam 0.008 µg/ml)?
A: 32 µg/mL

Q: What about the “Beta-lactam MIC in the presence of BLI” value ([2]; avibactam 0.031 µg/ml) of the same compound?
A: 32 µg/mL

Q: What about the “Beta-lactam MIC in the presence of BLI” value ([2]; avibactam 0.06 µg/ml) of the same compound?
A: 32 µg/mL

Q: What about the “Beta-lactam MIC in the presence of BLI” value ([2]; avibactam 0.5 µg/ml) of the same compound?
A: 16 µg/mL

Q: And the “Beta-lactam MIC in the presence of BLI” value ([2]; avibactam 1 µg/ml)?
A: 4 µg/mL

Q: And the “Beta-lactam MIC in the presence of BLI” value ([2]; avibactam 2 µg/ml)?
A: 4 µg/mL

Q: What about the “Beta-lactam MIC in the presence of BLI” value ([2]; avibactam 4 µg/ml) of the same compound?
A: 2 µg/mL

Q: And the “Beta-lactam MIC in the presence of BLI” value ([2]; avibactam 8 µg/ml)?
A: 1 µg/mL

Q: And the “Beta-lactam MIC in the presence of BLI” value ([2]; avibactam 16 µg/ml)?
A: 0.5 µg/mL

Q: And the “Beta-lactam MIC in the presence of BLI” value ([2]; vaborbactam 0 µg/ml)?
A: 32 µg/mL

Q: And the “Beta-lactam MIC in the presence of BLI” value ([2]; vaborbactam 0.008 µg/ml)?
A: 32 µg/mL

Q: What about the “Beta-lactam MIC in the presence of BLI” value ([2]; vaborbactam 0.031 µg/ml) of the same compound?
A: 32 µg/mL

Q: And the “Beta-lactam MIC in the presence of BLI” value ([2]; vaborbactam 0.06 µg/ml)?
A: 32 µg/mL

Q: What about the “Beta-lactam MIC in the presence of BLI” value ([2]; vaborbactam 0.5 µg/ml) of the same compound?
A: 8 µg/mL

Q: And the “Beta-lactam MIC in the presence of BLI” value ([2]; vaborbactam 1 µg/ml)?
A: 1 µg/mL

Q: What about the “Beta-lactam MIC in the presence of BLI” value ([2]; vaborbactam 2 µg/ml) of the same compound?
A: 0.5 µg/mL

Q: And the “Beta-lactam MIC in the presence of BLI” value ([3]; avibactam 0 µg/ml)?
A: 64 µg/mL

Q: What about the “Beta-lactam MIC in the presence of BLI” value ([3]; avibactam 0.008 µg/ml) of the same compound?
A: 64 µg/mL

Q: And the “Beta-lactam MIC in the presence of BLI” value ([3]; avibactam 0.031 µg/ml)?
A: 64 µg/mL

Q: What about the “Beta-lactam MIC in the presence of BLI” value ([3]; avibactam 0.06 µg/ml) of the same compound?
A: 32 µg/mL

Q: And the “Beta-lactam MIC in the presence of BLI” value ([3]; avibactam 0.5 µg/ml)?
A: 0.5 µg/mL

Q: What about the “Antibiotic MIC, No BLI” value ([3]; no BLI) of the same compound?
A: 64 µg/mL

Q: What about the “Beta-lactam MIC in the presence of BLI” value ([3]; vaborbactam 0 µg/ml) of the same compound?
A: 64 µg/mL

Q: What about the “Beta-lactam MIC in the presence of BLI” value ([3]; vaborbactam 0.008 µg/ml) of the same compound?
A: 64 µg/mL

Q: And the “Beta-lactam MIC in the presence of BLI” value ([3]; vaborbactam 0.031 µg/ml)?
A: 64 µg/mL

Q: What about the “Beta-lactam MIC in the presence of BLI” value ([3]; vaborbactam 0.06 µg/ml) of the same compound?
A: 64 µg/mL

Q: What about the “Beta-lactam MIC in the presence of BLI” value ([3]; vaborbactam 0.5 µg/ml) of the same compound?
A: 2 µg/mL

Q: Which results are given for O=C(O)C[C@@H]1CC[C@H](NC(=O)Cc2cccs2)B(O)O1 [Vaborbactam, vaborbactam]?
A: Ki (KPC-2 L169P): 190 ± 20 nM; PV50 ([2]; PAM4639 KPC-2::D179Y, potentiation of cefepime): 1 µg/mL; PV50 ([2]; PAM4639 KPC-2::D179Y, potentiation of ceftazidime): 1 µg/mL; PV50 ([2]; PAM4639 KPC-2::D179Y, potentiation of piperacillin): 1 µg/mL; PV50 ([3]; potentiation of cefepime): 0.5 µg/mL; PV50 ([3]; potentiation of ceftazidime): 0.5 µg/mL; PV50 ([3]; potentiation of piperacillin): 1 µg/mL; IC50 (KPC-2 D179Y): 1900 ± 300 nM; IC50 (KPC-2 [4]): 940 ± 20 nM; Kd (KPC-2 [5]): 8 nM; k2/K (KPC-2 [5]): 5.5 ± 0.5 × 10^3 M^−1 s^−1; k−2 (KPC-2 [5]): 4.3 ± 0.6 × 10^−5 s^−1
